Starred links: 1 amine or outer side, 2 acyl side, 3 side chain; linkers in the order of their positions; H or OH if unused. Non-standard residues stand in square brackets, D forms with d. Residues, ends and D or L forms follow the SMILES beside them. *: point of attachment. Dolaproine = CO[C@@H]([C@@H]1CCCN1)[C@@H](C)C(=O)O; X2 = C[C@@H](N[*:1])[C@@H](OC(=O)[*:2])c1ccccc1; Dil = CC[C@H](C)[C@H](NC)[C@@H](CC(=O)O)OC; X4 = OCC1OC(n2cc(CN*)nn2)C(O)C(O)C1O; NMeV = CN[C@H](C(=O)O)C(C)C
Biological target: T1, porcine tubulin (Sus scrofa, UniProt P02550+P02554)
T1 construct: purchased Cytoskeleton, Inc. BKO11P
T1 sequence (P02550 whole entry): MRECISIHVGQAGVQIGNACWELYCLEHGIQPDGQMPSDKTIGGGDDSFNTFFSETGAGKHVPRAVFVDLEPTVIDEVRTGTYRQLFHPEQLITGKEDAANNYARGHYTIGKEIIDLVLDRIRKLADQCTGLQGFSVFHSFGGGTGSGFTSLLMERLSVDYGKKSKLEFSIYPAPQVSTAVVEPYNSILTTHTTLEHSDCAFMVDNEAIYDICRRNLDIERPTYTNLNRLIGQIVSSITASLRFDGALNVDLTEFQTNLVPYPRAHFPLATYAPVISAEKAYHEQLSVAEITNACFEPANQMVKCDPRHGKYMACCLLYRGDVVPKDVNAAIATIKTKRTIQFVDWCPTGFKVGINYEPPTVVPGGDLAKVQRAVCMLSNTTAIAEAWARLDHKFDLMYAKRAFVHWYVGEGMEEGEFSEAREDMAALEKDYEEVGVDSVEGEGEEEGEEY
T1 sequence (P02554 whole entry): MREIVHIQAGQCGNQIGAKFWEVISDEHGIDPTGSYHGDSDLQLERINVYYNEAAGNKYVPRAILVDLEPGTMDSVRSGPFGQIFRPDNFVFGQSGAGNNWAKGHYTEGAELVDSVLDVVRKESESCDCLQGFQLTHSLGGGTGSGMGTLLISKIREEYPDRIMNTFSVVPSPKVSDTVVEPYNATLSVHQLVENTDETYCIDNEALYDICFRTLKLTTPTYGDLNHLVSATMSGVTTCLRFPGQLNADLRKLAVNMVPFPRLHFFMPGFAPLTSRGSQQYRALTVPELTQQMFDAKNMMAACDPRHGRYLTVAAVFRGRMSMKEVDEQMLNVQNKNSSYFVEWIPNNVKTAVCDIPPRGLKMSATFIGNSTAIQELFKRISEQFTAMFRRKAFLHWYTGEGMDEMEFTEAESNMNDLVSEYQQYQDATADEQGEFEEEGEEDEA
Experiment: Tubulin polymerization inhibition test
Type: biochemical
Details: 37° C., fluorescence measured for 60 minutes
Procedure: For measuring the tubulin polymerization inhibitory action, Tubulin Polymerization Assay Kit (manufactured by Cytoskeleton, Inc., BKO11P) was used. A PIPES buffer containing porcine tubulin, GTP, MgCl2, EGTA, Glycerol, and a fluorescent reporter was prepared under ice-cooling as a reaction solution. The reaction solution was ice-cooled until it was used. A test compound solution was prepared by an aqueous solution containing 1.5% DMSO, and added to a 96 well plate (manufactured by Corning Inc., 3686) at 5 μL/well. The reaction solution was added thereto at 50 μL/well, the plate was placed in a microplate reader (FlexStation 3, manufactured by Molecular Device, LLC) in which the internal temperature was set to 37° C. in advance, and the fluorescence intensity measurement (excitation wavelength: 360 nm, detection wavelength: 420 nm) of each well was started. The fluorescence intensity was measured once every minute, and the measurement was continued for 60 minutes.
The tubulin polymerization inhibition rate (%) was calculated by the following equation. […]

## CC[C@H](C)[C@@H]([C@@H](CC(=O)N1CCC[C@H]1[C@H](OC)[C@@H](C)C(=O)N[C@H](C)[C@@H](OC(=O)NCc1cn(C2OC(CO)C(O)C(O)C2O)nn1)c1ccccc1)OC)N(C)C(=O)[C@@H](NC(=O)[C@@H](NC)C(C)C)C(C)C (stereo partly shown) [Example U-018] (H-[NMeV]V[Dil][Dolaproine][X2]-X4)
  IC50: ≤ 3 µM

— patent US20250325689A1, “ANTIBODY-MULTIDRUG CONJUGATE” (UBE CORPORATION, priority 2022, published 2025)
